Measured values as given in patent publication US11000033B2, “Ketone or oxime compound, and herbicide” (NISSAN CHEMICAL CORPORATION, priority 2014, dated 2021).

Tests used:
Format in all cases: in vivo
[1] = test system: Avena fatua; assay: Test Example 5: herbicidal effect by foliage application, plastic box (symbol I); settings: 320 g/ha, 3 weeks after application
Summary of the method: (§1)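 Post-emergence spray; diluvial soil (sterilized), ~1.5 cm seed cover; greenhouse 25–30° C; 14-day-old plants; water-diluted emulsion at predetermined dose; visual score at 3 wk post-treatment.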

[2] = test system: rice; assay: Test Example 4: effect on crop by soil treatment (symbol b)
Summary of the method: (§2)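 Diluvial soil (sterilized) in boxes; seeds placed spot-wise alongside weed species; ~1.5 cm covering soil. Greenhouse, 25–30° C.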

[3] = test system: wheat; assay: Test Example 4: effect on crop by soil treatment (symbol e)
Summary of the method: as §2

[4] = test system: corn; assay: Test Example 5: effect on crop by foliage application, plastic box (symbol c); settings: 320 g/ha, 3 weeks after application
Summary of the method: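 Crop seed is sown alongside grass and broadleaf weed species in spots in sterilized diluvial soil, then covered to a depth of about 1.5 cm. Plants grow in a greenhouse kept at 25° C. to 30° C.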

[5] = test system: Lolium multiflorum Lam.; assay: Test Example 5: herbicidal effect by foliage application, plastic box (symbol K); settings: 320 g/ha, 3 weeks after application
Summary of the method: as §1

[6] = test system: Monochoria vaginalis; assay: Test Example 2: herbicidal activity, application during weed generation in submerged conditions (symbol C); settings: Table 23; application herbicide amount 320 g/ha; grade 0-5 by criteria of Test Example 1
Summary of the method: (§3)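 Weeds emerging under flooded conditions were treated with compound formulated as an emulsion and diluted with water to the intended herbicide amount, poured onto the surface of 4 cm standing water. Seeds had been co-sown in alluvial soil; plants grew at 25° C. to 30° C. and were assessed after 3 weeks.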

[7] = test system: directly sowed rice plant; assay: Test Example 3: effect on crop by foliage application, Wagner pot (symbol b); settings: application herbicide amount 320 g/ha
Summary of the method: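 Wagner pot (1/10000 are), alluvial soil, submerged 0.1–0.5 cm; sown E. crus-galli var. crus-galli, L. chinensis, C. difformis, rice; greenhouse 25–30 °C.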

[8] = test system: Chenopodium album; assay: Test Example 5: herbicidal effect by foliage application, plastic box (symbol O); settings: 320 g/ha, 3 weeks after application
Summary of the method: as §1

[9] = test system: Scirpus juncoides; assay: Test Example 2: herbicidal activity, application during weed generation in submerged conditions (symbol B); settings: Table 23; application herbicide amount 320 g/ha; grade 0-5 by criteria of Test Example 1
Summary of the method: as §3

[10] = test system: soybean; assay: Test Example 4: effect on crop by soil treatment (symbol d)
Summary of the method: as §2

[11] = test system: transplanted rice plant; assay: Test Example 1: effect on crop, application before weed generation in submerged conditions (symbol a); settings: application herbicide amount 320 g/ha
Summary of the method: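 Rice at 2.5 leaf stage transplanted into submerged soil (4 cm depth) sown with three weed species; herbicide applied before weed emergence.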

[12] = test system: Cyperus difformis; assay: Test Example 3: herbicidal effect by foliage application, Wagner pot (symbol E); settings: application herbicide amount 320 g/ha
Summary of the method: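 Alluvial soil was flooded to a depth of 0.1–0.5 cm, seeded with the weeds and rice, and kept in a greenhouse at 25–30 °C. After 14 days of growth, the foliage received a small-sprayer application of emulsion diluted to the intended rate; injury was rated at 3 weeks.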

[13] = test system: Echinochloa oryzacola Vasing.; assay: Test Example 1: herbicidal activity, application before weed generation in submerged conditions (symbol A); settings: application herbicide amount 320 g/ha
Summary of the method: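 Weed control was rated three weeks after treatment on a 0–5 scale, from 5% or lower up to 90% or more. Pre-emergence water-surface application of diluted emulsion at a predetermined rate was made on the day of sowing, in flooded (4 cm water) pots containing rice seedlings, kept at 25–30 °C under glass.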

[14] = application herbicide amount 320 g/ha

Compound	I: Avena fatua, herbicidal effect grade [1]	c: corn, effect on crop grade [4]	K: Lolium multiflorum Lam., herbicidal effect grade [5]	Herbicidal effect grade, C: Monochoria vaginalis [6]	O: Chenopodium album, herbicidal effect grade [8]	Herbicidal effect grade, B: Scirpus juncoides [9]	b (directly sowed rice plant) effect on crop grade [2, 14]	e (wheat) effect on crop grade [3, 14]	Effect grade on crop, a: transplanted rice plant [11]	effect on crop b (directly sowed rice plant), grade 0-5 [7]	herbicidal effect on E, grade 0-5 [12]	Herbicidal effect grade, A: Echinochloa oryzacola Vasing. [13]	d (soybean) effect on crop grade [10, 14]	I: Avena fatua, herbicidal effect (criteria 0-5) [1]	c: corn, effect on crop (criteria 0-5) [4]	K: Lolium multiflorum Lam., herbicidal effect (criteria 0-5) [5]	also measured
CC(CC1CC(O)=C(c2c(C)cc(Br)cc2C)C1=O)=NOCC(=O)N(C)C (mixture of isomers) [9-029]	5 (Herbicidal ratio of 90% or more (almost completely withered))	4 (Herbicidal ratio of 70% or higher and lower than 90%)	5 (Herbicidal ratio of 90% or more (almost completely withered))	0 (Herbicidal ratio of 5% or lower (almost no effect))	0 (Herbicidal ratio of 5% or lower (almost no effect))	0 (Herbicidal ratio of 5% or lower (almost no effect))	–	–	–	–	–	–	–	–	–	–	Effect on crop grade, b: directly sowed rice plant [2, 14]: 1 (Herbicidal ratio of 5% or higher and lower than 20%); Effect on crop grade, e: wheat [3, 14]: 0 (Herbicidal ratio of 5% or lower (almost no effect)); b (directly sowed rice plant) effect on crop grade ([7]; Table 24): 3 (Herbicidal ratio of 40% or higher and lower than 70%); Effect on crop grade, d: soybean [10, 14]: 0 (Herbicidal ratio of 5% or lower (almost no effect))
CON=C(C)CC1CC(OC)=C(c2c(C)cc(C)cc2C)C1=O (stereo not shown) [1-001, 2-mesityl-3-methoxy-5-{2-(methoxyimino)propyl}cyclopent-2-enone]	0 (Herbicidal ratio of 5% or lower (almost no effect))	0 (Herbicidal ratio of 5% or lower (almost no effect))	0 (Herbicidal ratio of 5% or lower (almost no effect))	0 (Herbicidal ratio of 5% or lower (almost no effect))	0 (Herbicidal ratio of 5% or lower (almost no effect))	0 (Herbicidal ratio of 5% or lower (almost no effect))	0 (Herbicidal ratio of 5% or lower (almost no effect))	0 (Herbicidal ratio of 5% or lower (almost no effect))	0 (Herbicidal ratio of 5% or lower (almost no effect))	0 (Herbicidal ratio of 5% or lower (almost no effect))	0 (Herbicidal ratio of 5% or lower (almost no effect))	0 (Herbicidal ratio of 5% or lower (almost no effect))	0 (Herbicidal ratio of 5% or lower (almost no effect))	–	–	–	–
CON=C(C)CC1CC(O)=C(c2c(C)cc(C)cc2C)C1=O (stereo not shown) [1-002, 3-hydroxy-2-mesityl-5-{2-(methoxyimino)propyl}cyclopent-2-enone]	5 (Herbicidal ratio of 90% or more (almost completely withered))	5 (Herbicidal ratio of 90% or more (almost completely withered))	5 (Herbicidal ratio of 90% or more (almost completely withered))	3 (Herbicidal ratio of 40% or higher and lower than 70%)	4 (Herbicidal ratio of 70% or higher and lower than 90%)	3 (Herbicidal ratio of 40% or higher and lower than 70%)	5 (Herbicidal ratio of 90% or more (almost completely withered))	4 (Herbicidal ratio of 70% or higher and lower than 90%)	5 (Herbicidal ratio of 90% or more (almost completely withered))	5 (Herbicidal ratio of 90% or more (almost completely withered))	5 (Herbicidal ratio of 90% or more (almost completely withered))	5 (Herbicidal ratio of 90% or more (almost completely withered))	0 (Herbicidal ratio of 5% or lower (almost no effect))	–	–	–	–
CCON=C(C)CC1CC(O)=C(c2c(C)cc(C)cc2C)C1=O (stereo not shown) [1-003]	5 (Herbicidal ratio of 90% or more (almost completely withered))	5 (Herbicidal ratio of 90% or more (almost completely withered))	5 (Herbicidal ratio of 90% or more (almost completely withered))	3 (Herbicidal ratio of 40% or higher and lower than 70%)	3 (Herbicidal ratio of 40% or higher and lower than 70%)	3 (Herbicidal ratio of 40% or higher and lower than 70%)	5 (Herbicidal ratio of 90% or more (almost completely withered))	5 (Herbicidal ratio of 90% or more (almost completely withered))	5 (Herbicidal ratio of 90% or more (almost completely withered))	5 (Herbicidal ratio of 90% or more (almost completely withered))	5 (Herbicidal ratio of 90% or more (almost completely withered))	5 (Herbicidal ratio of 90% or more (almost completely withered))	3 (Herbicidal ratio of 40% or higher and lower than 70%)	–	–	–	–
CON=C(C)CC1CC(OC(=O)COc2ccc(F)cc2)=C(c2c(C)cc(C)cc2C)C1=O (stereo not shown) [1-073]	–	–	–	2 (Herbicidal ratio of 20% or higher and lower than 40%)	–	5 (Herbicidal ratio of 90% or more (almost completely withered))	5 (Herbicidal ratio of 90% or more (almost completely withered))	4 (Herbicidal ratio of 70% or higher and lower than 90%)	5 (Herbicidal ratio of 90% or more (almost completely withered))	5 (Herbicidal ratio of 90% or more (almost completely withered))	5 (Herbicidal ratio of 90% or more (almost completely withered))	5 (Herbicidal ratio of 90% or more (almost completely withered))	0 (Herbicidal ratio of 5% or lower (almost no effect))	5 (Herbicidal ratio of 90% or more (almost completely withered))	4 (Herbicidal ratio of 70% or higher and lower than 90%)	5 (Herbicidal ratio of 90% or more (almost completely withered))	–
CON=C(CC1CC(O)=C(c2c(C)cc(C)cc2C)C1=O)C1CCCC1 (stereo not shown) [1-078]	–	–	–	0 (Herbicidal ratio of 5% or lower (almost no effect))	–	0 (Herbicidal ratio of 5% or lower (almost no effect))	–	–	5 (Herbicidal ratio of 90% or more (almost completely withered))	5 (Herbicidal ratio of 90% or more (almost completely withered))	0 (Herbicidal ratio of 5% or lower (almost no effect))	5 (Herbicidal ratio of 90% or more (almost completely withered))	–	1 (Herbicidal ratio of 5% or higher and lower than 20%)	3 (Herbicidal ratio of 40% or higher and lower than 70%)	5 (Herbicidal ratio of 90% or more (almost completely withered))	b: directly sowed rice plant, effect grade on crop ([2]; 320 g/ha): 5 (Herbicidal ratio of 90% or more (almost completely withered)); e: wheat, effect grade on crop ([3]; 320 g/ha): 0 (Herbicidal ratio of 5% or lower (almost no effect)); d: soybean, effect grade on crop ([10]; 320 g/ha): 0 (Herbicidal ratio of 5% or lower (almost no effect))
